In publication PMC5715595 (British Journal of Pharmacology, 2017):
pIC50, pKi: −log10 of the molar value. Like-named read-outs stand apart in the source and are kept apart here.

How the values were obtained:
[1] = biological target: α2B‐adrenoceptor (Homo sapiens, UniProt P18089); assay: Affinity at α2B-adrenoceptor; type: binding
[2] = tested on: rabbit Purkinje fibres; assay: Dofetilide-induced early after-depolarizations and triggered activity in rabbit Purkinje fibres; type: cell-based; conditions: for APD90: 0.25 Hz
Description: (§1) Following a lethal dose of pentobarbital, the hearts of male New Zealand rabbits were immediately excised and immersed in a modified Tyrode solution maintained at room temperature and previously saturated with O2/CO2 (95%/5%). A piece of ventricle containing free running Purkinje fibres was fixed to the silastic bottom of an organ bath perfused with the same solution maintained at 37°C for 30 min. The preparation was then superfused with the modified Tyrode solution and stimulated for 30 min at 2 Hz and then at 1 Hz (2 ms stimulus at twice threshold). […] After a stabilization period of at least 1 h, action potentials typical for Purkinje fibres were recorded. Action potential reproducibility and stability were confirmed during a further 20 min stabilization period. […] Each was applied for 20 min to enable steady state to be reached. In addition, the emergence of early after‐depolarizations (EADs), favoured by calcium loading during the late phase 2 of the prolonged action potential, is recognized as a better marker of pro‐arrhythmic potential than APD prolongation alone.

[3] = tested on: human stem cell‐derived cardiomyocytes; type: cell-based
Text: . Human cardiomyocytes (Cor.4U®, Axiogenesis AG, Cologne, Germany) were derived from human iPSC. Preparations were stimulated at 0.5 Hz with 4 ms rectangular pulses from 1 to 1.5 times depolarization threshold to −60 mV. We studied RMP, APA, action potential durations measured at 20 and 90% repolarization (APD20 and APD90) and APD90‐APD20. […]

[4] = tested on: hERG channel trafficking
Text: Whole‐cell patch clamp conditions were similar to the previous one with the following slight changes (biphasic pulses 2 s at +20 mV and then for 3.2 s at −50 mV applied at a 0.1 Hz).

[5] = tested on: humans; conditions: human, ref Shah et al., 2016, cited from earlier work
[6] = tested on: rabbit Purkinje fibres; assay: Action potential parameters in rabbit Purkinje fibres; type: cell-based
Description: as §1

[7] = biological target: CaV1.2 (Homo sapiens, UniProt Q13936); assay: cell-based
Description: (§2) and CiPA Initiative Studies
(§3) =============================================================
(§4) In vitro studies on other ion channels […]
(§5) through NaV1.5, KV4.3, KV7.1/mink, Kir2.1, KV1.5, CaV1.2 and CaV3.2 channels.
(§6) 35-mm dish culture in the conditions mentioned in standard cell culture conditions. Experiments were performed with a cell density enabling isolated cells for patch clamping. Cells were continuously superfused with extracellular medium (1-2 mL∙minute-1) at room temperature.
(§7) D-glucose 10, HEPES 10 and the final pH adjusted to 7.4±0.02 with NaOH for recording NaV1.5, KV4.3, KV7.1/mink, Kir2.1, KV1.5 and CaV3.2 currents. It was (in mM): NaCl 110, KCl 4, BaCl2 20, MgCl2 1, D-glucose 20, HEPES 10 and the final pH adjusted to 7.4 ± 0.02 with NaOH for recording the CaV1.2 current. Compositions of the intracellular solution to fill the pipette are […]
(§8) Composition of intracellular solutions used to fill pipette to record currents through NaV1.5, KV4.3, KV7.1/mink, Kir2.1, KV1.5, CaV1.2 and CaV3.2 channels
(§9) Solution to fill the pipette (mM)
(§10) Creatine-phospho kinase 50 U∙mL-1
(§11) After formation of a Gigaohm seal between the patch electrodes and individual cells (pipette resistance range: 2.0 MΩ - 7.0 MΩ; seal resistance range: > 1 GΩ) the cell membrane across the pipette tip was ruptured to assure electrical access to the cell interior (whole-cell patch-configuration). In case the quality of the seal was poor, the process of seal formation was repeated with a different cell and a new pipette. As soon as a stable seal was established outward tail currents were measured upon pulses described in the Table S2. If current density was judged to be too low for measurement, another cell was recorded. […]
(§12) voltage stimulation protocol indicated in the next table continuously run until the steady-state level of block was reached.
(§13) Stimulation conditions used to record currents through NaV1.5, KV4.3, KV7.1/mink, Kir2.1, KV1.5, CaV1.2 and CaV3.2 channels
(§14) Ion channel Holding potential Pulse / duration Frequency Reference compound […]
(§15) (resting / fast / slow sweeps at one (10 mM) inactivated concentration)

[8] = biological target: NaV1.5 (Homo sapiens, UniProt Q14524); assay: cell-based
Chain of NaV1.5 (Q14524 whole entry): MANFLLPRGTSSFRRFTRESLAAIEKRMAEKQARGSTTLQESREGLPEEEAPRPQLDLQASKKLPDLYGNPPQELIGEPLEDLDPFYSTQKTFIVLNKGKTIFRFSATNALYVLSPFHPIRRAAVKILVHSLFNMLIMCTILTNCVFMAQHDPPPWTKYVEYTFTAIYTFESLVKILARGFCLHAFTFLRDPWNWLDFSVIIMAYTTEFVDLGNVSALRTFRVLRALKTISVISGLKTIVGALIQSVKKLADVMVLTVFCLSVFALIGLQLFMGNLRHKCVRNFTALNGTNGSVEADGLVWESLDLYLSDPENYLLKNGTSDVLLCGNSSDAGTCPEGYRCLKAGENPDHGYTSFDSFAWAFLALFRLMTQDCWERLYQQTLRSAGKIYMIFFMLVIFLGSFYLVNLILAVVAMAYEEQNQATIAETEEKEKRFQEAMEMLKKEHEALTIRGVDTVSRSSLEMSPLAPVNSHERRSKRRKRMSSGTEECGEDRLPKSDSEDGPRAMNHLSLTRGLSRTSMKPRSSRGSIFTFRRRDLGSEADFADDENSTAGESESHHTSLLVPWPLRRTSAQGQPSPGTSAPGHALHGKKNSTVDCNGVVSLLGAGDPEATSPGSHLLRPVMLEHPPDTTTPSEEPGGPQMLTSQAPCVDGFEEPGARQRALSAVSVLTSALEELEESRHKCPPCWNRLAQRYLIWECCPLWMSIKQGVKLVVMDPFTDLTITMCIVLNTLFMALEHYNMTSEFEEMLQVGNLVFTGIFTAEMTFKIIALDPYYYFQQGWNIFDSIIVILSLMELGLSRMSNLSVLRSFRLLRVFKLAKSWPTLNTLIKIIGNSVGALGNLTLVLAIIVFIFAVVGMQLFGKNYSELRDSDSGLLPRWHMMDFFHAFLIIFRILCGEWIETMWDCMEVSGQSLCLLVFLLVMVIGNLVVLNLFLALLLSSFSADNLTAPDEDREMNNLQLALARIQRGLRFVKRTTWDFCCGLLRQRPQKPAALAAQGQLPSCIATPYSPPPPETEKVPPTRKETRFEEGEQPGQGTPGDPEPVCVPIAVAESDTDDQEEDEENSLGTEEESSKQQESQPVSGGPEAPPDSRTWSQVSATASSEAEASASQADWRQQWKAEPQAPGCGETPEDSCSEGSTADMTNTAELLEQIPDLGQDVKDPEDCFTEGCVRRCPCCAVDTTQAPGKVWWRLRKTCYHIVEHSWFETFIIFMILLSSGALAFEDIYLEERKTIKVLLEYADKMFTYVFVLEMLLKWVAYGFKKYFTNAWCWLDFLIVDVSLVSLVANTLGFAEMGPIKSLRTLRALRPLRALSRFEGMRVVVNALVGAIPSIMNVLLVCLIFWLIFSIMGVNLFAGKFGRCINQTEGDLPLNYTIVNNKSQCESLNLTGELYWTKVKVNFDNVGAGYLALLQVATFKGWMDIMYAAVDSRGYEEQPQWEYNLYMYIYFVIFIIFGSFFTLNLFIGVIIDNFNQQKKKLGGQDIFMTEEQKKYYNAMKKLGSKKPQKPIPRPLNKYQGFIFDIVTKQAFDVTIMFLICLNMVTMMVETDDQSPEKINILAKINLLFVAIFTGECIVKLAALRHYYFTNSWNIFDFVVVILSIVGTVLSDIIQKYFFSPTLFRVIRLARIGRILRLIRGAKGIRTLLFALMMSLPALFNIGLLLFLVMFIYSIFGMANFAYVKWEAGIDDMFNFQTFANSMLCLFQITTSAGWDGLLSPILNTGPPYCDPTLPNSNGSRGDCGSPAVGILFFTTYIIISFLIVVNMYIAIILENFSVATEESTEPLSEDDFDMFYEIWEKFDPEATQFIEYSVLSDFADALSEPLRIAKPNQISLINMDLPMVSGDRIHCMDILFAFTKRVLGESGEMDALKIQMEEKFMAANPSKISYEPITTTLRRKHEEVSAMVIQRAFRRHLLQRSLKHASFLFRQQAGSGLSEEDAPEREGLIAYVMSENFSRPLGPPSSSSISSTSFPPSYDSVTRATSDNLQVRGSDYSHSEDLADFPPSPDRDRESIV
Description: as §2, §3, §4, §5, §6, §7, §8, §9, §10, §11, §12, §13, §14, §15

[9] = 10 μM pitolisant, dofetilide 0.1 μM

Chain of α2B‐adrenoceptor (P18089 whole entry): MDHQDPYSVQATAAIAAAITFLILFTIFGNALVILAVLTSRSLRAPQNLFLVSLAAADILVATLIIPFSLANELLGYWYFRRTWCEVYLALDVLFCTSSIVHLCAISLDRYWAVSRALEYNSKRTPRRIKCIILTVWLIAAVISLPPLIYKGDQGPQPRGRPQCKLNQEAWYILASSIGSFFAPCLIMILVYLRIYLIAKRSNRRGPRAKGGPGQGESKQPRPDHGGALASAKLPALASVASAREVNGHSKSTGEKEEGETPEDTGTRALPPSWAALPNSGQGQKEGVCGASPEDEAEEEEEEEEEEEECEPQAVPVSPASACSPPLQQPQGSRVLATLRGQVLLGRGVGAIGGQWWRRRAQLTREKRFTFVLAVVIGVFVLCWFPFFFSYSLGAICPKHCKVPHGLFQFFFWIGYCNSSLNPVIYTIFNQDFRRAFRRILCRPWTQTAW

SMILES: Cl.Clc1ccc(CCCOCCCN2CCCCC2)cc1 [pitolisant, 1‐{3‐[3‐(4‐chlorophenyl)propoxy]propyl}piperidine, hydrochloride]
- pKi [1]: 5.37
- effect on dofetilide-induced EADs ([2]; 1 μM pitolisant, dofetilide 0.1 μM): no effect (in four out of four experiments)
- inhibition of dofetilide-induced EADs (experiments) ([2]; 3 μM pitolisant, dofetilide 0.1 μM): two out of three
- suppression of dofetilide-induced EADs (experiments) [2, 9]: all seven
- suppression of dofetilide-induced spontaneous triggered activity (experiments) [2, 9]: one out of one
- APD90 ([2]; dofetilide 0.1 μM for 1 h10 and pitolisant 10 μM for 15 min): 275 ms
- APD90 ([2]; dofetilide 0.1 μM for 55 min and pitolisant 1 μM for 20 min): 598 ms
- effect on dofetilide-induced increase in APD90 [3]: fully reversed
- increase in APD90–20 vs. baseline ([3]; 3 μM): 192 ms
- maximal increase in APD90 ([3]; 3 μM): 97 ms
- increase in APD90–20 vs. baseline ([3]; 10 μM): 176 ms
- effect on APD20 ([3]; 1, 3 or 10 μM): concentration‐dependent effect of decreasing APD20
- effect on RMP and APA ([3]; 1, 3 or 10 μM): little effect
- effect on hERG current after long-term exposure ([4]; 1 μM over 24 h, after washout): no significant effect on hERG current
- change in concentration in the cell culture medium over 24 h of exposure ([4]; LC-mass spectrometry): no significant changes
- maximum mean (90% CI) placebo-corrected increase in QTcF interval from baseline (ΔΔQTcF) ([5]; 40 mg pitolisant hydrochloride, TQT study): 3.29 (0.35, 6.23) ms
- Cmax ([5]; 40 mg): 53 ± 27 ng/mL
- maximum mean (90% CI) placebo-corrected increase in QTcF interval from baseline (ΔΔQTcF) ([5]; 120 mg pitolisant hydrochloride, TQT study): 5.27 (2.35, 8.20) ms
- Cmax ([5]; 120 mg): 164 ± 63 ng/mL
- maximum mean (90% CI) placebo-corrected increase in QTcF interval from baseline (ΔΔQTcF) ([5]; 200 mg pitolisant hydrochloride, SAD study): 13.3 (8.1, 18.5) ms
- maximum mean (90% CI) placebo-corrected increase in QTcF interval from baseline (ΔΔQTcF) ([5]; 240 mg pitolisant hydrochloride, SAD study): 9.9 (4.7, 15.1) ms
- Cmax ([5]; 240 mg): 282 ± 47 ng/mL
- effects on electrophysiological parameters of the action potential ([6]; 1 μM): only minimal effects
- change in APA ([6]; 10 μM): −8 ± 3%
- change in APD50 vs. the control ([6]; 10 μM): −27 ± 4%
- change in Vmax ([6]; 10 μM): −17 ± 5%
- change in resting RMP vs. the control ([6]; 10 μM): −6 ± 1%
- change in APD90 vs. the control ([6]; 10 μM, non-significant): +9 ± 5%
- pIC50 ([6]; Oryctolagus cuniculus, purkinje, estimated from 27% decrease in APD50 at 10 μM): ~5.30
- pIC50 ([7]; Fitted IC50, CaV1.2 ICaL, Hill curve fit with Hill coefficient of one): 5.02
- pIC50 ([7]; Pitolisant IC50, CaV1.2, ICaL): ~5.00
- pIC50 ([8]; Fitted IC50, fit to fast inactivated Nav1.5): 4.58
- pIC50 ([8]; Fitted IC50, fit to slow inactivated Nav1.5): 4.58
- pIC50 ([8]; Fitted IC50, mean of fits to fast and slow inactivated Nav1.5, used for the whole Nav1.5 current, Hill coefficient of one): 4.58
- pIC50 ([8]; Pitolisant IC50, NaV1.5 fast inactivated state, INa): ≤ 5.00
- pIC50 ([8]; Pitolisant IC50, NaV1.5 resting state, INa): < 5.00
- pIC50 ([8]; Pitolisant IC50, NaV1.5 slow inactivated state, INa): ≤ 5.00
